The test system of data set [1] is BACE1. Briefly: BACE1 expression in N2a cells by Western blotting. The data set is classed as cell-based. The note with it: 24 h. Here is the method: (A,C) N2a cells were treated with CI-994 at the indicated concentration for 24 h, and the levels of β-catenin (A) and BACE1 (C) were examined by Western blotting. (B,D) The band intensity of β-catenin and BACE1 was quantified and normalized to the corresponding signal for actin. The results represented in the histograms are shown as the mean±SD and are the average of three independent experiments. *P<0.05, **P<0.01 versus corresponding control value.
N2a cells were treated with 1015 and 1020 at the indicated concentrations for 24 h. (A) the levels of BACE1 expression were examined by Western blotting. (B) The intensity of BACE1 bands were quantified and normalized to the corresponding signal for actin. The results represented in the histograms are shown as the mean±SD and are the average of 3-4 independent experiments. *P<0.05, **P<0.01 versus corresponding control value.
Western blotting: Cells in 6-well plates were lysed in 0.5 ml of lysis buffer (phosphate-buffered saline containing 1% Triton X-100, 1× Proteinase inhibitor cocktail Complete, and 1 mM PMSF) at 4° C. for 15 min. Equal quantities of protein were subjected to SDS-PAGE under reducing conditions. Following transfer to immobilon-P transfer membrane, successive incubations with a primary antibody, and a horseradish peroxidase-conjugated secondary antibody or IRDye® 680RD goat anti-rabbit/mouse secondary antibodies were carried out for 60-120 min at room temperature. The immunoreactive proteins were then detected using the ECL system or the Odyssey infrared imaging system (LI-COR). Films showing immunoreactive bands were scanned by Hp Scanjet 5590.
On the technique in general: A western blot detects proteins with antibodies after separation by electrophoresis.

Data set [2] has as its system C2C12 cells. Description: Alkaline phosphatase (ALP) activity assay, osteoblastic differentiation of C2C12 cells. Conditions: 72 h; for potency in inducing C2C12 osteoblastic differentiation compared with CI-994: dose-response 0.1-12.8 μM. In kind it is cell-based. How it is done: C2C12 cells were seeded into 24-well plates (1×10^5 cells/well). After culture overnight, the cells were treated with a Wnt activator at 0.8 μM (A) and 1.6 μM (B) for 72 h. The ALP activity was measured by ALP assay kit from AnaSpec (AS-72146). All the values are the average of triple determinations with the s.d. indicated by error bars. *P<0.05, **P<0.01 versus corresponding control value. This experiment is a representation of two such experiments performed with similar data.
C2C12 cells were seeded into 24-well plates (1×10^5 cells/well). After culture overnight, the cells were treated with the noted compounds at 0, 0.1, 0.2, 0.4, 0.8, 1.6, 3.2, 6.4 and 12.8 μM for 72 hours. The ALP activity was measured by ALP assay kit from AnaSpec (AS-72146). All the values are the average of triple determinations with the s.d. indicated by error bars.
Alkaline phosphatase (ALP) activity assay: C2C12 cells in 24-well plates were treated with each individual compound at the indicated concentrations for 72 h. Cells were then harvested for assay of ALP activity with the ALP assay kit (AnaSpec) according to the manufacturers specifications.

In data set [3] the test system is HDAC. Briefly: Histone Deacetylase (HDAC) activity assay (fluorometric kit). The data set is classed as biochemical. Conditions: 2 μM. How it is done:
HDAC enzymatic activities of compounds were measured by fluorometric HDAC Activity Assay kit (Abcam. #ab156064). Trichostatin A, a known HDAC inhibitor, was used as the positive control. All the values are the average of triple determination with the s.d. indicated by error bars. **P<0.01 versus the corresponding control value.
Histone Deacetylase (HDAC) activity assay: Histone Deacetylase (HDAC) activity assay kit (ab156064) was purchased from Abcam, and the effects of the tested compounds on HDAC activity were examined according to the manufacturers specifications.

Data set [4] is described as follows: Aqueous (kinetic) solubility assay in PBS pH 7.4. In kind it is physicochemical. Conditions: phosphate-buffered saline, 25 °C, pH 7.4, aqueous buffer, kinetic from dmso stock, PBS pH 7.4, 2% DMSO, two hours, assay range 2-200 μM. How it is done: Aqueous solubility assay: Using a 10 mM stock solution of the compound in 100% DMSO, dilutions were prepared to a theoretical concentration of 200 μM in duplicates in phosphate-buffered saline pH 7.4 with 2% final DMSO. In parallel, compound dilutions in 50% acetonitrile/PBS were prepared to theoretical concentrations of 0 μM (blank), 50 μM, 100 μM and 200 μM with 2% final DMSO to generate calibration curves. The experimental compound dilutions in PBS were further allowed to equilibrate at 25° C. on a thermostatic orbital shaker for two hours and then centrifuged at 14000 rpm, 5 min and filtered through HTS filter plates using a vacuum manifold. The supernatants of test compounds were diluted 2-fold with acetonitrile contained 4% DMSO before measuring. Ondansetron was used as reference compound to control proper assay performance. 200 μl of samples were transferred to 96-well plate and measured in 200-550 nm range with 5 nm step. The effective range of this assay is approximately 2-200 μM and the compounds returning values close to the upper limit of the range may have higher actual solubility (e.g. 5 ? deoxy-5-fluorouddine).

Data set [5] in a line: Metabolic stability in mouse liver microsomes. In kind it is in vitro ADME. Conditions: 2 μM, five time points over 40 min, NADPH. Here is the method:
Metabolic stability of several compounds (1009, 1011, 1015, 1020, and 1056) and 2 reference compounds (propranolol and imipramine) were determined in mouse liver microsomes at five time points over 40 min using HPLC-MS. Metabolic stability is defined as the percentage of parent compound lost over time in the presence of a metabolically active test system.
Metabolic stability in mouse liver microsomes: Mouse hepatic microsomes were isolated from pooled, perfused livers of Balb/c male mice according to the standard protocol. The batch of microsomes was tested for quality control using Imipramine, Propranolol and Verapamil as reference compounds. Microsomal incubations were carried out in 96-well plates in 5 aliquots of 40 μL each (one for each time point). Liver microsomal incubation medium contained PBS (100 mM, pH 7.4), MgCl2 (3.3 mM), NADPH (3 mM), glucose-6-phosphate (5.3 mM), glucose-6-phosphate dehydrogenase (0.67 units/ml) with 0.42 mg of liver microsomal protein per ml. Control incubations were performed replacing the NADPH-cofactor system with PBS. Test compound (2 μM, final solvent concentration 1.6%) was incubated with microsomes at 37° C., shaking at 100 rpm. Incubations were performed in duplicates. Five time points over 40 minutes had been analyzed. The reactions were stopped by adding 12 volumes of 90% acetonitrile-water to incubation aliquots, followed by protein sedimentation by centrifuging at 5500 rpm for 3 minutes. […]. Supernatants were analyzed using the HPLC system coupled with tandem mass spectrometer.
The elimination constant (kel), half-life (t1/2) and intrinsic clearance (Clint) were determined in plot of […] versus time, using linear regression analysis: […]
(Liver microsomes are a subcellular fraction often used to study metabolism.)

[6] abbreviates: read-out: PBS solubility, pH 7.4, μM Exp1.
Where [7] appears, read: read-out: PBS solubility, pH 7.4, μM Exp2.
The mark [8] stands for this setting: read-out: PBS solubility, pH 7.4, μM Mean.

SMILES strings stand for the structures. Values after ≈ are worked out from the molar mass of the structure shown. Where two headings read alike, the source gives them in different places.

Regarding `Nc1ccccc1NC(=O)c1ccc(C(=O)NCC2CCN2C2CCCC2)cn1` (stereo not drawn) [Compound 1015], the BACE1 expression result in data set [1] (0.8 μM and 1.6 μM) is on record as “significantly inhibited”. In addition, the “potency in inducing C2C12 osteoblastic differentiation compared with CI-994” value in data set [2] was “more potent than CI-994”. For the same molecule, the “inhibitory effects on HDAC activity” value in data set [3] is given as “do not display any inhibitory effects”. Besides, the solubility at 2 h is 210 µM (≈ 82.6 µg/mL) in data set [4] (setting [6]), 211 µM (≈ 83 µg/mL) in data set [4] (setting [7]) and not below 200 µM in data set [4] (setting [8]). In addition, the “stability in mouse hepatic microsomal system” value (from here on “stability”) in data set [5] was “good stability”.
Turning to `Nc1ccccc1NC(=O)c1ccc(C(=O)NCCN2CCC3(CCCCC3)CC2)cc1` [Compound 1020], the BACE1 expression result in data set [1] (0.8 μM and 1.6 μM) is reported as “significantly inhibited”. Also, the “inhibitory effects on HDAC activity” value in data set [3] is on record as “do not display any inhibitory effects”. Moreover, the solubility at 2 h is 200 µM (≈ 86.9 µg/mL) in data set [4] (setting [6]), 205 µM (≈ 89.1 µg/mL) in data set [4] (setting [7]) and not below 200 µM in data set [4] (setting [8]). For the same molecule, the “stability” value in data set [5] is reported as “unstable”.
As for `CC(=O)Nc1ccc(C(=O)Nc2ccccc2N)cc1` [CI-994, 4-(acetylamino)-N-(2-aminophenyl)benzamide, reference compound], the BACE1 expression result in data set [1] (CI-994 at the indicated concentration) is reported as “deceased”. For the same molecule, the ALP activity result in data set [2] (C2C12 cells, 0.8 μM and 1.6 μM) is reported as “significantly enhanced”.
Consider `CC1CCCC(C)N1CCNC(=O)c1ccc(C(=O)Nc2ccccc2N)nc1` (stereo not drawn) [Compound 1011], for which the “potency in inducing C2C12 osteoblastic differentiation compared with CI-994” value in data set [2] is reported as “more potent than CI-994”. Further, the “inhibitory effects on HDAC activity” value in data set [3] is on record as “do not display any inhibitory effects”. The solubility at 2 h in data set [4] (setting [6]) was 207 µM (≈ 81.9 µg/mL); in data set [4] (setting [7]), 207 µM (≈ 81.9 µg/mL); in data set [4] (setting [8]) it was not below 200 µM. Moreover, the “stability” value in data set [5] is “good stability”.

What is called solubility is the concentration that dissolves in the medium under given conditions.

The record behind these values is US20220267271A1, “WNT ACTIVATORS AND METHODS OF USE” (MAYO FOUNDATION FOR MEDICAL EDUCATION AND RESEARCH, priority 2019, published 2022).
